According to ChEMBL document CHEMBL1201862, “PubChem BioAssay data set” (2004):
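Each compound was tested at five concentrations against cells in 96-well plates for 48 hours. GI50 marks 50% less growth.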 Active and inactive are the calls of the source. Rule as the data show it: active = GI50 up to about 1.1 µM and inactive = higher.

Columns and labels:
Test in all cases: growth of human tumour cells (NCI), 48 h
EKVX = system: EKVX
HCT-15 = system: HCT-15
RXF 393 = system: RXF 393
786-0 = system: 786-0
UACC-257 = system: UACC-257
HT-29 = system: HT-29
A498 = system: A498
A549 = system: A549
Hs-578T = system: Hs-578T
ACHN = system: ACHN
MDA-N = system: MDA-N
HL-60 = system: HL-60
SK-MEL-2 = system: SK-MEL-2
NCI-H460 = system: NCI-H460
SF-295 = system: SF-295
OVCAR-5 = system: OVCAR-5
M14 = system: M14
UO-31 = system: UO-31
Malme-3M = system: Malme-3M
U-251 = system: U-251
CCRF-CEM = system: CCRF-CEM
SF-539 = system: SF-539
COLO 205 = system: COLO 205
SNB-19 = system: SNB-19
MOLT-4 = system: MOLT-4
NCI-H226 = system: NCI-H226
OVCAR-3 = system: OVCAR-3
IGROV-1 = system: IGROV-1
NCI/ADR-RES = system: NCI/ADR-RES
RPMI-8226 = system: RPMI-8226
MCF7 = system: MCF7
HCT-116 = system: HCT-116
HCC 2998 = system: HCC 2998
DU-145 = system: DU-145
CAKI-1 = system: CAKI-1
LOX IMVI = system: LOX IMVI
OVCAR-4 = system: OVCAR-4
SR = system: SR
SW-620 = system: SW-620
KM12 = system: KM12
SK-MEL-5 = system: SK-MEL-5
NCI-H23 = system: NCI-H23
SK-MEL-28 = system: SK-MEL-28
HOP-62 = system: HOP-62
NCI-H522 = system: NCI-H522
MDA-MB-435 = system: MDA-MB-435
TK-10 = system: TK-10
HOP-92 = system: HOP-92
SF-268 = system: SF-268
SN12C = system: SN12C
UACC-62 = system: UACC-62
K562 = system: K562
PC-3 = system: PC-3
OVCAR-8 = system: OVCAR-8
MDA-MB-231 = system: MDA-MB-231
T47D = system: T47D
SK-OV-3 = system: SK-OV-3
SNB-75 = system: SNB-75

CCOC(=O)/C(C(=S)Nc1ccccc1)=C(/N)N1CCCC1
GI50 (EKVX): > 100 µM (inactive) | GI50 (HCT-15): > 100 µM | GI50 (RXF 393): 63.1 µM (inactive) | GI50 (786-0): > 100 µM (inactive) | GI50 (UACC-257): > 100 µM (inactive) | GI50 (HT-29): > 100 µM (inactive) | GI50 (A498): > 100 µM (inactive) | GI50 (A549): > 100 µM (inactive) | GI50 (Hs-578T): 77.4 µM (inactive) | GI50 (ACHN): > 100 µM (inactive) | GI50 (MDA-N): 31 µM (inactive) | GI50 (HL-60): 49.9 µM (inactive) | GI50 (SK-MEL-2): > 100 µM (inactive) | GI50 (NCI-H460): 62.2 µM (inactive) | GI50 (SF-295): > 100 µM (inactive) | GI50 (OVCAR-5): > 100 µM (inactive) | GI50 (M14): 72.6 µM (inactive) | GI50 (UO-31): > 100 µM (inactive) | GI50 (Malme-3M): > 100 µM (inactive) | GI50 (U-251): 61.2 µM (inactive) | GI50 (CCRF-CEM): 46.1 µM (inactive) | GI50 (SF-539): > 100 µM (inactive) | GI50 (COLO 205): > 100 µM (inactive) | GI50 (SNB-19): 50.2 µM (inactive) | GI50 (MOLT-4): > 100 µM (inactive) | GI50 (NCI-H226): > 100 µM (inactive) | GI50 (OVCAR-3): > 100 µM (inactive) | GI50 (IGROV-1): > 100 µM (inactive) | GI50 (NCI/ADR-RES): > 100 µM (inactive) | GI50 (RPMI-8226): > 100 µM (inactive) | GI50 (MCF7): 54.1 µM (inactive) | GI50 (HCT-116): 65.5 µM (inactive) | GI50 (HCC 2998): > 100 µM (inactive) | GI50 (DU-145): > 100 µM (inactive) | GI50 (CAKI-1): > 100 µM (inactive) | GI50 (LOX IMVI): > 100 µM (inactive) | GI50 (OVCAR-4): > 100 µM (inactive) | GI50 (SR): > 100 µM (inactive) | GI50 (SW-620): 48.9 µM (inactive) | GI50 (KM12): 61.1 µM (inactive) | GI50 (SK-MEL-5): > 100 µM (inactive) | GI50 (NCI-H23): > 100 µM (inactive) | GI50 (SK-MEL-28): > 100 µM (inactive) | GI50 (HOP-62): > 100 µM (inactive) | GI50 (NCI-H522): > 100 µM (inactive) | GI50 (MDA-MB-435): 37.9 µM (inactive) | GI50 (TK-10): > 100 µM (inactive) | GI50 (HOP-92): 2.1 µM (inactive) | GI50 (SF-268): > 100 µM (inactive) | GI50 (SN12C): > 100 µM (inactive) | GI50 (UACC-62): > 100 µM (inactive) | GI50 (K562): 37 µM (inactive) | GI50 (PC-3): 38.9 µM (inactive) | GI50 (OVCAR-8): > 100 µM (inactive) | GI50 (MDA-MB-231): 29.7 µM (inactive)

COc1cc2c(cc1OCCCOS(C)(=O)=O)N=C[C@@H]1CCCN1C2=O
GI50 (EKVX): > 100 µM (inactive) | GI50 (HCT-15): > 100 µM | GI50 (RXF 393): > 100 µM (inactive) | GI50 (786-0): > 100 µM (inactive) | GI50 (UACC-257): > 100 µM (inactive) | GI50 (HT-29): > 100 µM (inactive) | GI50 (A498): > 100 µM (inactive) | GI50 (A549): > 100 µM (inactive) | GI50 (Hs-578T): > 100 µM (inactive) | GI50 (ACHN): > 100 µM (inactive) | GI50 (HL-60): > 100 µM (inactive) | GI50 (SK-MEL-2): > 100 µM (inactive) | GI50 (NCI-H460): > 100 µM (inactive) | GI50 (SF-295): > 100 µM (inactive) | GI50 (M14): > 100 µM (inactive) | GI50 (UO-31): > 100 µM (inactive) | GI50 (Malme-3M): > 100 µM (inactive) | GI50 (U-251): > 100 µM (inactive) | GI50 (SF-539): > 100 µM (inactive) | GI50 (COLO 205): > 100 µM (inactive) | GI50 (SNB-19): > 100 µM (inactive) | GI50 (MOLT-4): > 100 µM (inactive) | GI50 (NCI-H226): > 100 µM (inactive) | GI50 (OVCAR-3): > 100 µM (inactive) | GI50 (IGROV-1): > 100 µM (inactive) | GI50 (T47D): > 100 µM (inactive) | GI50 (NCI/ADR-RES): > 100 µM (inactive) | GI50 (RPMI-8226): > 100 µM (inactive) | GI50 (SK-OV-3): > 100 µM (inactive) | GI50 (MCF7): > 100 µM (inactive) | GI50 (HCT-116): > 100 µM (inactive) | GI50 (HCC 2998): > 100 µM (inactive) | GI50 (DU-145): > 100 µM (inactive) | GI50 (CAKI-1): > 100 µM (inactive) | GI50 (LOX IMVI): > 100 µM (inactive) | GI50 (SW-620): > 100 µM (inactive) | GI50 (KM12): > 100 µM (inactive) | GI50 (SK-MEL-5): > 100 µM (inactive) | GI50 (NCI-H23): > 100 µM (inactive) | GI50 (SK-MEL-28): > 100 µM (inactive) | GI50 (NCI-H522): > 100 µM (inactive) | GI50 (MDA-MB-435): > 100 µM (inactive) | GI50 (TK-10): > 100 µM (inactive) | GI50 (HOP-92): > 100 µM (inactive) | GI50 (SF-268): > 100 µM (inactive) | GI50 (SN12C): > 100 µM (inactive) | GI50 (UACC-62): > 100 µM (inactive) | GI50 (OVCAR-8): > 100 µM (inactive) | GI50 (MDA-MB-231): > 100 µM (inactive)

N#C/C(=C\NC(=S)Nc1ccc(S(=O)(=O)Nc2ccccn2)cc1)C(N)=O
GI50 (EKVX): > 100 µM (inactive) | GI50 (HCT-15): > 100 µM | GI50 (RXF 393): > 100 µM (inactive) | GI50 (786-0): > 100 µM (inactive) | GI50 (UACC-257): > 100 µM (inactive) | GI50 (HT-29): > 100 µM (inactive) | GI50 (A498): > 100 µM (inactive) | GI50 (A549): > 100 µM (inactive) | GI50 (Hs-578T): > 100 µM (inactive) | GI50 (ACHN): > 100 µM (inactive) | GI50 (MDA-N): > 100 µM (inactive) | GI50 (SK-MEL-2): > 100 µM (inactive) | GI50 (NCI-H460): > 100 µM (inactive) | GI50 (SF-295): > 100 µM (inactive) | GI50 (OVCAR-5): > 100 µM (inactive) | GI50 (M14): > 100 µM (inactive) | GI50 (UO-31): > 100 µM (inactive) | GI50 (Malme-3M): > 100 µM (inactive) | GI50 (U-251): > 100 µM (inactive) | GI50 (CCRF-CEM): 42.2 µM (inactive) | GI50 (SF-539): > 100 µM (inactive) | GI50 (COLO 205): > 100 µM (inactive) | GI50 (SNB-19): > 100 µM (inactive) | GI50 (MOLT-4): 25.5 µM (inactive) | GI50 (NCI-H226): > 100 µM (inactive) | GI50 (OVCAR-3): > 100 µM (inactive) | GI50 (IGROV-1): > 100 µM (inactive) | GI50 (NCI/ADR-RES): > 100 µM (inactive) | GI50 (RPMI-8226): > 100 µM (inactive) | GI50 (SK-OV-3): > 100 µM (inactive) | GI50 (MCF7): > 100 µM (inactive) | GI50 (HCT-116): > 100 µM (inactive) | GI50 (DU-145): > 100 µM (inactive) | GI50 (CAKI-1): > 100 µM (inactive) | GI50 (SNB-75): 61.8 µM (inactive) | GI50 (LOX IMVI): > 100 µM (inactive) | GI50 (OVCAR-4): > 100 µM (inactive) | GI50 (SR): > 100 µM (inactive) | GI50 (SW-620): > 100 µM (inactive) | GI50 (KM12): > 100 µM (inactive) | GI50 (SK-MEL-5): > 100 µM (inactive) | GI50 (NCI-H23): 80.2 µM (inactive) | GI50 (SK-MEL-28): > 100 µM (inactive) | GI50 (HOP-62): > 100 µM (inactive) | GI50 (NCI-H522): > 100 µM (inactive) | GI50 (MDA-MB-435): > 100 µM (inactive) | GI50 (TK-10): > 100 µM (inactive) | GI50 (HOP-92): > 100 µM (inactive) | GI50 (SF-268): > 100 µM (inactive) | GI50 (SN12C): > 100 µM (inactive) | GI50 (UACC-62): > 100 µM (inactive) | GI50 (K562): 47.9 µM (inactive) | GI50 (PC-3): > 100 µM (inactive) | GI50 (OVCAR-8): > 100 µM (inactive) | GI50 (MDA-MB-231): > 100 µM (inactive)
